Source: patent US20240132467A1, “BENZIMIDAZOLE DERIVATIVES FOR TREATING RESPIRATORY DISEASE” (TMEM16A Limited, priority 2020, published 2024)

Target: T1, human TMEM16A (TMEM16Aabc variant) (Homo sapiens, UniProt Q5XXA6, DEL476-501)
T1 sequence (Q5XXA6 with tags, fused parts or gaps isoform Q5XXA6-5 DEL539-564): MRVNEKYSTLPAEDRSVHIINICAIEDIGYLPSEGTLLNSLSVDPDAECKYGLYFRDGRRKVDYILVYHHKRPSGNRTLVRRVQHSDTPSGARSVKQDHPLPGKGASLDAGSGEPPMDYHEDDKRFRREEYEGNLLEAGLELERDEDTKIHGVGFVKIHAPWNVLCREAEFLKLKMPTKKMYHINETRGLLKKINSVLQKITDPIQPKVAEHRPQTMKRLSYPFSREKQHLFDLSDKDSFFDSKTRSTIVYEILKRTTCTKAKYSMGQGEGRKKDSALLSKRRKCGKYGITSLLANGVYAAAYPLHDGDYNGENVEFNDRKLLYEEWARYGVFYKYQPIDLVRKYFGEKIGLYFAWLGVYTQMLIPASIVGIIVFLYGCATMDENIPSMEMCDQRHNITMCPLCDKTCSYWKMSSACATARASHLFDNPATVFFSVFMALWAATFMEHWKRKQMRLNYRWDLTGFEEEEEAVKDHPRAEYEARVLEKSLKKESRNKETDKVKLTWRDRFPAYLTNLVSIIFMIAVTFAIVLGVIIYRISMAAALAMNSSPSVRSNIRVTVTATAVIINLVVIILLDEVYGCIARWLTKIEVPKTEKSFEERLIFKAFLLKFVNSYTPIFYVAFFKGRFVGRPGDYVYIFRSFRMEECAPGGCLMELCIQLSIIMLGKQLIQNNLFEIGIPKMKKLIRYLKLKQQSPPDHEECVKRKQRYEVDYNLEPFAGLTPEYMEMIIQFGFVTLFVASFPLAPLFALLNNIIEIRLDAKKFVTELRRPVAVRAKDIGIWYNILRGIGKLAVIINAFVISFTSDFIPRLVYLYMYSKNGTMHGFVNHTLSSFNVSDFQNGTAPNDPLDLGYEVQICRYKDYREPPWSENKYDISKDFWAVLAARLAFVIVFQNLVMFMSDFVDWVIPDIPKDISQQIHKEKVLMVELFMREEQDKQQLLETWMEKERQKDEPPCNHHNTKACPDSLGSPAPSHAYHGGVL
Assay: Automated whole-cell patch clamp (Qpatch) TMEM16A potentiator assay in FRT cells stably expressing human TMEM16A
Assay type: cell-based
Settings: for activation at 3.33 µM: 3.33 μM test compound, percentage increase of baseline TMEM16A current at +70 mV, intracellular calcium at EC20, read-out: % Potentiation @ 3.33 μM Avg; for EC50: cumulative concentration response, 5 min per concentration, whole-cell patch clamp
Method: Automated whole-cell patch clamp assay to detect TMEM16A activity in recombinant cells Cell culture and preparation
Fisher rat thyroid (FRT) cells stably expressing human TMEM16A (TMEM16Aabc variant; Dr Luis Galietta, Insituto Giannina, Italy) were cultured in T-75 flasks in Hams F-12 media with Coon's modification (Sigma) supplemented with 10% (v/v) foetal bovine serum, penicillin-streptomycin (10,000 U/mL/10000 μg/mL), G-418 (750μg/mL), L-glutamine (2 mM) and sodium bicarbonate solution (7.5% v/v). At —90% confluence cells were harvested for experiments by detachment with a 2:1 (v/v) mixture of Detachin (BMS Biotechnology) and 0.25% (w/v) trypsin-EDTA. Cells were diluted to a density of 3.5-4.5×10^6 cells/mL with media consisting of CHO-S-SFM II (Sigma), 25 mM HEPES (Sigma) and Soy bean trypsin inhibitor (Sigma).
Whole-Cell Patch Clamp Recording
FRT-TMEM16A cells were whole-cell patch clamped using an automated planar patch clamp system (Qpatch, Sophion). Briefly, once high resistance (GOhm) seals were established between the cells and the planar recording array the patch was ruptured using suction pulses to establish the whole-cell recording configuration of the patch clamp technique. The assay employed the following solutions (all reagents Sigma):
Intracellular solution (mM): N-methyl-D-glucamine 130, CaCl2 18.2, MgCl2 1, HEPES 10, EGTA 10, BAPTA 20, Mg-ATP 2, pH 7.25, 325mOsm with sucrose.
Extracellular solution (mM): N-methyl-D-glucamine 130, CaCl2 2, MgCl2 1, HEPES 10, pH 7.3, 320 mOsm with sucrose.
The intracellular solution buffers intracellular calcium at levels required to give —20% activation of the maximal TMEM16A mediated current (EC20 for calcium ions). Cells were voltage clamped at a holding potential of -70mV and a combined voltage step (to +70 mV)/ramp (−90 my to +90 mV) was applied at 0.05 Hz. After a period of current stabilisation test compounds, solubilised in 100% (v/v) DMSO and subsequently diluted into extracellular solution, were applied to generate a cumulative concentration response curve. Each concentration of test compound was incubated for 5 minutes before addition of the next concentration. After the final concentration was tested a supramaximal concentration of either a known active positive modulator or the TMEM16A inhibitor, CaCCinhA01 (Del La Fuente et al, 2008) was added to define the upper and lower limits of the assay.
Compound activity was quantified by measuring the increase in current upon compound addition and expressing this as a percentage increase of baseline TMEM16A current level. Percentage increases in current were determined for each concentration and the data plotted as a function of concentration using either the Qpatch software or Graphpad Prism v6.05 providing the concentration which gave 50% of its maximal effect (EC50) and maximum efficacy (percentage of baseline increase).
In FIG. 1, IBL equals baseline current, km equals the peak current during test compound concentration 1 incubation period and so on.
Peak TMEM16A current at +70mV was plotted as a function of time over the assay period. Baseline current (IBL) was measured after a period of stabilisation. The increase in current for each compound addition was determined by taking the peak current during the incubation period and subtracting the current from the previous recording period and then expressing this as a percentage of the baseline current. For test compound concentration 1 in FIG. 1 this is:
For each additional concentration tested the increase in current was determined by subtracting the current from the previous incubation period and normalising the baseline value—for test concentration 2 in FIG. 1 this is:
The values for each test concentration were plotted as a cumulative function of concentration e.g. for test concentration two this would be the sum of the peak changes measured during concentration one plus concentration two.

SMILES	activation at 3.33 µM [%]	EC50 [nM]
O=C(CC1CCCCC1)Nc1ccc2[nH]c(Cc3ccccc3)nc2c1 [Example 1.1, N-(2-Benzyl-1H-benzimidazol-5-yl)-2-cyclohexyl-acetamide]	127	250
O=C(NCC1CCCCC1)c1ccc2[nH]c(Cc3ccccc3)nc2c1 [Example 1.2, 2-Benzyl-N-(cyclohexylmethyl)-1H-benzimidazole-5-carboxamide]	111	225
O=C(NCC12CC3CC(CC(C3)C1)C2)c1ccc2[nH]c(Cc3ccccc3)nc2c1 [Example 1.2.1, N-(1-Adamantylmethyl)-2-benzyl-1H-benzimidazole-5-carboxamide]	146	441
CC1(CNC(=O)c2ccc3[nH]c(Cc4ccccc4)nc3c2)CCCC1 [Example 1.2.2, 2-Benzyl-N-I(1-methylcyclopentyl)methylj-1H-benzimidazole-5-carboxamide]	144	203
C[C@@H](NC(=O)c1ccc2[nH]c(Cc3ccccc3)nc2c1)C1CCCCC1 [Example 1.2.3, 2-Benzyl-N-[(1R)-1-cyclohexylethyl]-1H-benzimidazole-5-carboxamide]	153	792
CCC(C)(C)c1nc2ccc(C(=O)NCC3CCCCCC3)cc2[nH]1 [Example 1.3, N-(Cycloheptylmethyl)-2-(1,1-dimethylpropyl)-3H-benzimidazole-5-carboxamide]	78.5	563
O=C(NCC1CCCCCC1)c1ccc2[nH]c(CC3(O)CCCCC3)nc2c1 [Example 1.3.1, N-(Cycloheptylmethyl)-2-[(1-hydroxycyclohexyl)methyl]-1H-benzimidazole-5-carboxamide]	135	425
O=C(NCC1CCCCCC1)c1ccc2[nH]c(C(CO)c3ccccc3)nc2c1 (centres unmarked) [Example 1.3.2, N-(Cycloheptylmethyl)-2-(2-hydroxy-1-phenyl-ethyl)-1H-benzimidazole-5-carboxamide]	92.9	581
O=C(NCC1CCCCC1)c1ccc2nc(Cc3cccc(O)c3)[nH]c2c1 [Example 1.4, N-(Cyclohexylmethyl)-2-[(3-hydroxyphenyl)methyl]-3H-benzimidazole-5-carboxamide]	81.3	384
O=C(CC12CC3CC(CC(C3)C1)C2)Nc1ccc2[nH]c(Cc3cccc(O)c3)nc2c1 [Example 1.5, 2-(1-Adamantyl)-N-12-[(3-hydroxyphenyl)methyl]-1H-benzimidazol-5-yljacetamide]	162	1080
CC1(CC(=O)Nc2ccc3[nH]c(Cc4cccc(O)c4)nc3c2)CCCCC1 [Example 1.5.1, N-[2-[(3-hydroxyphenyl)methyl]-1H-benzimidazol-5-yl]-2-(1-methylcyclohexyl) acetamide]	105	222
O=C(CC1CCCCCC1)Nc1ccc2[nH]c(Cc3cccc(O)c3)nc2c1 [Example 1.5.2, 2-Cycloheptyl-N-[2-[(3-hydroxyphenyl)methyl]-1H-benzimidazol-5-yl]acetamide]	136	227
O=C(CC1CCCCC1)Nc1ccc2[nH]c(Cc3cccc(O)c3)nc2c1 [Example 1.5.3, 2-Cyclohexyl-N-12-[(3-hydroxyphenyl)methyl]-1H-benzimidazol-5-yljacetamide]	93.1	566
O=C(CC12CC3CC(CC(C3)C1)C2)Nc1ccc2[nH]c(Cc3ccccc3)nc2c1 [Example 1.5.4, 2-(1-Adamantyl)-N-(2-benzyl-1H-benzimidazol-5-yl)acetamide]	219	834
O=C(CC1(O)C2CC3CC(C2)CC1C3)Nc1ccc2[nH]c(Cc3ccccc3)nc2c1 (centres unmarked) [Example 1.6]	83.9	231
COc1cccc(Cc2nc3cc(NC(=O)CC4C5CC6CC(C5)CC4C6)ccc3[nH]2)c1 (centres unmarked) [Example 1.7, 2-(2-Adamantyl)-N-12-[(3-methoxyphenyl)methyl]-1H-benzimidazol-5-yljacetamide]	136	587
